Data from patent US9155770B2.
Each block holds one molecule with its values, some of them ahead of it.

Tests used:
[1] = test system: TNF-RE tkLuc; test: Effect of antiestrogens on TNF-RE tkLuc (Example 2); type: cell-based, human; conditions: in contrast to E2
[2] = molecular target: T1, ERβ (Homo sapiens, UniProt Q92731); test: TNF-RE tkLuc repression in U2OS cells with ERβ; type: cell-based; parameters: expressed in transfected cells
[3] = molecular target: T1, ERβ; conditions: Example 2
[4] = test system: primary invasive breast cancer; conditions: women at high risk for breast cancer; cited from earlier work
[5] = test system: estrogen receptor-positive breast cancer; conditions: five years of therapy; cited from earlier work
[6] = molecular target: T1, ERβ; test: ERE-tk-Luc luciferase assay in U2OS cells with ERβ; type: cell-based; parameters: expressed in transfected cells; host or cells: U2OS (human osteosarcoma); conditions: competition with the extract

T1 sequence (Q92731 whole entry): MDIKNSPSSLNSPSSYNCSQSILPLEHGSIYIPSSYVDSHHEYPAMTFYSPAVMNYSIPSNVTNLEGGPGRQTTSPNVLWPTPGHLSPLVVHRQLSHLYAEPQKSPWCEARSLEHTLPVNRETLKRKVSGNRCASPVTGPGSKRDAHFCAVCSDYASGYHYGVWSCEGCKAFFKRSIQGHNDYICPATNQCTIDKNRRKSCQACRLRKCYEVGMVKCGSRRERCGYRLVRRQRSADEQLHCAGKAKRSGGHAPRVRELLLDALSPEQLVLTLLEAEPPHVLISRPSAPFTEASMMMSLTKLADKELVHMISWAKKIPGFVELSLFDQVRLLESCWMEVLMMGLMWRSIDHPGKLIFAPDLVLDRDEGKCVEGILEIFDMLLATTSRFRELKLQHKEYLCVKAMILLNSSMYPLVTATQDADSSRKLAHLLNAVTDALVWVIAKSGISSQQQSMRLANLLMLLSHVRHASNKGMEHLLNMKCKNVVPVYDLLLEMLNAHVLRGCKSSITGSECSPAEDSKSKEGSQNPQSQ

SMILES: C[C@]12CC[C@@H]3c4ccc(O)cc4C[C@@H](CCCCCCCCC[S+]([O-])CCCC(F)(F)C(F)(F)F)[C@H]3[C@@H]1CC[C@@H]2O (stereo partly drawn) [ICI 182, 780]
activation of TNF-RE tkLuc [1]: 2 fold

repression of TNF-α activation of TNF-RE with ERβ [2]: 100%
repression of TNF-α activation of TNF-RE tkLuc with ERβ [3]: 60-80%
SMILES: C[C@]12CC[C@@H]3c4ccc(O)cc4CC[C@H]3[C@@H]1CC[C@@H]2O [E2, estradiol]

SMILES: CC/C(=C(\c1ccccc1)c1ccc(OCCN(C)C)cc1)c1ccccc1 [tamoxifen]
reduction of risk of primary invasive breast cancer [4]: 49%
activation of TNF-RE tkLuc [1]: 2 fold
reduction of mortality from breast cancer [5]: 22%
reduction of risk of recurrences [5]: 42%

effect of SERM antagonist on extract-stimulated ERE with ERβ (FIG. 6) [6]: inhibited
SMILES: O=C(c1ccc(OCCN2CCCCC2)cc1)c1c(-c2ccc(O)cc2)sc2cc(O)ccc12 [raloxifene]
activation of TNF-RE tkLuc [1]: 2 fold
